The values below come from US11370779B2, “Pharmaceutical composition for preventing or treating acute myeloid leukemia or metastatic breast cancer” (PELEMED CO., LTD., priority 2017, dated 2022).

Read-outs that look alike come from different tables or passages of the source. Bounds are passed on as bounds.

In data set [1] the test system is MOLM14 Wild type. Kind of data set: Cell proliferation MTT assay, MOLM14 wild type. It is filed as cell-based. To be noted: Homo sapiens, MOLM-14. On the technique in general: Tetrazolium assays rely on reduction of a dye to a coloured formazan, in cell work by metabolically active cells.
Excerpt: (§2) MOLM14 were purchased from the ATCC and the cells were maintained in RPMI medium (Hyclone) with 10% Fetal bovine serum (Gibco) and 1% penicillin/streptomycin.
In data set [2] the test system is HCT-116 (colon cancer). Kind of data set: WST anti-proliferative assay, HCT-116. To be noted: Homo sapiens, HCT-116, read-out: % inhibition at 1 μM, HCT-116. Format: cell-based. The procedure: (§1) (Table 6) Compound 33 (LDD-2635) was tested at 8 concentrations to measure their anti-proliferative effects on various human cancer cell lines using WST assay. The GI50 values were obtained in triplicate and the error bars represent the standard error of the mean.

The subject of data set [3] is SK-OV-3 (ovarian cancer). Kind of data set: WST anti-proliferative assay, SK-OV-3. It is filed as cell-based. To be noted: Homo sapiens, SK-OV-3, read-out: % inhibition at 1 μM, SK-OV-3. On the procedure: as §1
In data set [4] the test system is MOLM14 FLT3-ITD-D835Y. Kind of data set: Cell proliferation MTT assay, MOLM14-ITD-D835Y. Format: cell-based, human. To be noted: Homo sapiens, MOLM-14.
Description: as §2
Mutagenesis is performed in FLT3-ITD MSCV plasmid using Q5 site-directed mutagenesis kit (E05545). […] Retroviral particles were produced by transiently transfecting HEK293T cells with Retroviral vectors together with packaging vectors, GPE and VSVG. 48 h after transfection, media containing viral particles were collected and filtered for infection. Viral particles were infected to MOLM14 cells and 48 h after infection, infected cells were selected with puromycin (1 μg/mL).
In data set [5] the test system is MDA-MB-231 xenograft. Kind of data set: MDA-MB-231 mouse tumor xenograft. Format: in vivo. The conditions noted are these: 20 mg/kg/p.o/day, 4 weeks. On the procedure: 6-weeks-old Balb/c nu/nu mice (female) were purchased from Central Lab. Animal Inc. to be used. […] The candidate substances LDD-2614 (Compound 21), 2633 (Compound 28), 2634 (Compound 34), 2635 (Compound 33) were administered at 20 mg/kg/p.o/day, and doxorubicin, which was a control, was administered at 5 mg/kg/i.p (once a week) for 4 weeks.

Data set [6] has as its system MV4-11 cells. Kind of data set: Cytotoxicity WST assay, MV4-11 (Example 3). To be noted: for GI50: Homo sapiens, MV4-11, WST assay. Format: cell-based, human. The procedure:
Test 96-well plates were incubated at 37° C. with 5% CO2 for 72 h. After 72 h incubation, 10 μL of the EZ-Cytox kit reagent from EZ-cytox Cell viability assay kit (DaeilLab, Korea) were added to each well of the 96-well plate and then incubated at 37° C. with 5% CO2 for 3 h. […] The IC50 values were calculated with nonlinear regression analysis using OriginPro 9.1 software (OriginLab, Northampton, Mass.). […] The GI50 values were obtained in triplicate and the error bars represent the standard error of the mean.

For data set [7], the system named is MV4;11 cells. Kind of data set: Cell viability, EZ-Cytox tetrazolium assay, MV4;11. It is filed as cell-based, human. The conditions noted are these: Homo sapiens, MV4-11; 72 hours; read-out: GI50(nM) MV4;11.
Data set [8] concerns MV4-11 xenograft. Kind of data set: MV4-11 mouse tumor xenograft, oral administration.
Description: The drug or the control PBS was administered daily for a duration of 21 days. Tumor sizes were measured twice a week for 21 days, and the tumor volumes were calculated with the following formula: V (volume)=X (length)×D (width)2/2. After 21 days, the mice were sacrificed, and the tumor weights were measured.
An in vivo MV4-11 xenograft study was performed to determine the efficacy of the indirubin derivatives. MV4-11 cells were subcutaneously injected into BALB/c nu/nu mice, and tumors were allowed to grow to a size of approximately 100 mm^3.
In data set [9] the test system is MDA-MB-231. Kind of data set: Cell viability, EZ-Cytox tetrazolium assay, MDA-MB-231. Format: cell-based, human. The conditions noted are these: Homo sapiens, MDA-MB-231; 72 hours. The procedure: MDA-MB-231 (metastatic breast cancer, ATCC HTB-26), Jurkat (human acute T lymphocytic leukemia, ATCC TIB-152), and K-562 (human chronic myelogenous leukemia, ATCC CCL-243) cells were cultured in RPMI-1640 (Sigma Co.). MCF7 (human breast adenocarcinoma, ATCC HTB-22) and PC-3 (human prostate adenocarcinoma, ATCC CRL-1435) cells were cultured in DMEM (Sigma Co.) medium supplemented with 10% fetal bovine serum and 1% penicillin/streptomycin. The cultured cells were incubated at 3° C. with 5% CO2.
Cell viability was assessed by a tetrazolium-based assay using the EZ-Cytox Cell Viability Assay kit (DaeilLab, Korea). Briefly, 2,000 to 15,000 cells were plated in 96-well plates in 100 μl of medium. The next day, the cells were treated with compounds together with dimethyl sulfoxide (DMSO) as a negative control. Three days (72 hours) after the drug addition, 15 μl of the EZ-Cytox kit reagent was added to each well of the 96-well plate and then incubated at 37° C. in a humidified CO2 incubator for 4 hours. After incubation, the optical density (OD) was measured at a wavelength of 450 nm using a Victor multilabel reader (Perkin Elmer, Waltham, Mass., USA). The IC50 was calculated by nonlinear regression using Prism version 5.01 (GraphPad, La Jolla, Calif., USA).

Data set [10] deals with HepG2 (liver cancer). Kind of data set: WST anti-proliferative assay, HepG2. It is filed as cell-based. To be noted: Homo sapiens. On the procedure:
as §1

Data set [11] relates to PC3 (prostate cancer). Kind of data set: WST anti-proliferative assay, PC3. It is filed as cell-based. The conditions noted are these: Homo sapiens, read-out: % inhibition at 1 μM, PC3. The procedure: as §1
In data set [12] the test system is MOLM14 FLT3-ITD (MOLM14-ITD). Kind of data set: Cell proliferation MTT assay, MOLM14-ITD. It is filed as cell-based. To be noted: Homo sapiens, MOLM-14.
Description: as §2
Viral particles were infected to MOLM14 cells and 48 h after infection, infected cells were selected with puromycin (1 μg/mL).
Data set [13] relates to A549 (lung cancer). Kind of data set: WST anti-proliferative assay, A549. Format: cell-based. To be noted: Homo sapiens, A549, read-out: % inhibition at 1 μM, A549. On the procedure: as §1

In the case of `Cl.Cl.O=C1Nc2ccc(F)cc2/C1=C1/Nc2ccccc2/C1=N\OCCN1CCNCC1` [Compound 33, (2Z,3E)-5′-fluoro-3-((2-(piperazin-1-yl)ethoxy)imino)-[2,3′-biindolinylidene]-2′-one dihydrochloride], the GI50 in data set [1] came to 4.88 nM; in [4] it was 1.87 nM; in [6] (Table 6, read-out: GI50 value (μM) MV4-11), 0.001 ± 0.0003 µM; in data set [6] (read-out: GI50 MV4-11 cells), 0.001 µM; in [7], 1 nM; in data set [9], 117 nM. In addition, the GI50 in data set [10] came to 1.1 ± 0.2 µM; in [12], 1.85 nM. Further, the inhibition at 1 µM was 38.5% in data set [2], 16% in data set [3], 40.7% in [11] and 2.05% in data set [13]. The “weights of the liver and the kidney” value in data set [5] is on record as “no significant difference”. Besides, the “times more sensitive against MV4-11 cells than K562 cell line” value in data set [6] is recorded as 430 times. In [8] (20 mg/kg oral once daily for 21 days), the “weight loss or other signs of toxicity during the administration period” value is listed as “no weight loss or any other signs of toxicity”. The “day by which the tumor disappeared” value in data set [8] (20 mg/kg oral once daily, based on measured tumor volume) is ≤ 14 days.

Usually GI50 stands for the concentration giving 50% growth inhibition. For orientation: inhibition means the share of the control response that was lost under treatment.
